pIC50: −log10 of the molar value. Calls of active or inactive are those of the source. The rule behind the calls is not given here.
How the values were obtained:
HUVEC [1] = assay: Antiproliferative activity against HUVEC assessed as effect on cell viability up to 30 uM after 24 hrs by trypan blue assay; type: functional, cell-based; settings: Homo sapiens
Integrin alpha-5/beta-1 = Integrin alpha-5/beta-1 (Homo sapiens, UniProt P05556+P08648); assay: Inhibition of fibronectin binding to recombinant human integrin alpha5 (Phe42 to Tyr995 residues) beta1 (Gln21 to Asp728 residues) expressed in CHO cells by ELISA based solid phase binding assay; type: cell-based
Integrin alpha-V/beta-3 = Integrin alpha-V/beta-3 (Homo sapiens, UniProt P05106+P06756); assay: Inhibition of vitronectin binding to recombinant human integrin alphaV (Phe31 to Val992 residues) beta3 (Gly27 to Asp718 residues) expressed in CHO cells by ELISA based solid phase binding assay; type: cell-based
Integrin alpha-V/beta-5 = Integrin alpha-V/beta-5 (Homo sapiens, UniProt P06756+P18084); assay: Inhibition of vitronectin binding to recombinant human integrin alphaV (Phe31 to Val992 residues) beta5 (Gly24 to Asn719 residues) expressed in CHO cells by ELISA based solid phase binding assay; type: cell-based
Integrin alpha-V/beta-6 = Integrin alpha-V/beta-6 (Homo sapiens, UniProt P06756+P18564); assay: Inhibition of latency-associated peptide/TGF-beta binding to recombinant human integrin alphaV (Phe31 to Val992 residues) beta6 (Gly22 to Asn707 residues) expressed in CHO cells by ELISA based solid phase binding assay; type: cell-based
HUVEC [2] = assay: Inhibition of tube formation in HUVEC up to 30 uM after 24 hrs […]; type: functional, cell-based; settings: Homo sapiens
Integrin alpha-V/beta-8 = Integrin alpha-V/beta-8 (Homo sapiens, UniProt P06756+P26012); assay: Inhibition of latency-associated peptide/TGF-beta binding to recombinant human integrin alphaV (Phe31 to Val992 residues) beta8 (Glu43 to Arg684 residues) expressed in CHO cells by ELISA based solid phase binding assay; type: cell-based
[3] = target: Integrin alpha-IIb/beta-3 (Homo sapiens, UniProt P05106+P08514); assay: Inhibition of fibrinogen binding to human platelet integrin alpha2b beta3 by ELISA based solid phase binding assay

SMILES | pIC50 (Integrin alpha-5/beta-1) | pIC50 (Integrin alpha-V/beta-3) | pIC50 (Integrin alpha-V/beta-5) | pIC50 (Integrin alpha-V/beta-6) | pIC50 (Integrin alpha-V/beta-8) | pIC50 [3] | Activity (HUVEC [1]) | inhibition (HUVEC [2])
COc1c2cccc1C(=O)N[C@@H](CCCNC(=N)N)C(=O)NCC(=O)N[C@@H](CC(=O)O)C(=O)N[C@H](Cc1ccccc1)C(=O)N2 | 6.04 | 7.14 | 5.31 | 6.15 | 5.16 | 5.31 | inactive | inactive
C[Si]1(C)C[C@@H]2C(=O)N[C@@H](CCCNC(=N)N)C(=O)NCC(=O)NC(CC(=O)O)C(=O)NC(Cc3ccccc3)C(=O)N2C1 (single isomer, unassigned) | 5.97 | 7.96 | 7.18 | 6.75 | 6.50 | < 5.00 | inactive | inactive
N=C(N)NCCC[C@@H]1NC(=O)CC2(CCCCC2)CNC(=O)[C@@H](Cc2ccccc2)NC(=O)[C@H](CC(=O)O)NC(=O)CNC1=O | 6.21 | 8.00 | 6.52 | 5.71 | 5.40 | 6.18 | inactive | inactive

Now those with a higher pIC50 (Integrin alpha-5/beta-1), led by results:

pIC50 (Integrin alpha-5/beta-1) | pIC50 (Integrin alpha-V/beta-3) | pIC50 (Integrin alpha-V/beta-5) | pIC50 (Integrin alpha-V/beta-6) | pIC50 (Integrin alpha-V/beta-8) | pIC50 [3] | SMILES | Activity (HUVEC [1]) | inhibition (HUVEC [2])
6.85 | 8.26 | 7.30 | 6.42 | 6.09 | < 5.00 | CC1(C)NC(=O)[C@@H](Cc2ccccc2)NC(=O)[C@H](CC(=O)O)NC(=O)CNC(=O)[C@H](CCCNC(=N)N)NC1=O | inactive | inactive
7.06 | 8.48 | 7.20 | 6.22 | 5.82 | < 5.00 | N=C(N)NCCC[C@@H]1NC(=O)C2(CCCCC2)NC(=O)[C@@H](Cc2ccccc2)NC(=O)[C@H](CC(=O)O)NC(=O)CNC1=O | inactive | inactive

Source: ChEMBL document CHEMBL4627306, “Novel cilengitide-based cyclic RGD peptides as αvβ3 integrin inhibitors” (Bioorg Med Chem Lett, 2020)
